{"source": "PubChem BioAssay AID1552", "about": "(Sanford-Burnham Center for Chemical Genomics, 2009)", "note": "Calls of active or inactive are those of the source. The rule behind the calls is not given here."}
{"biological_target": "Ubiquitin-conjugating enzyme E2 N (Homo sapiens) (UniProt P61088)", "sequence (P61088 whole entry, looked up)": "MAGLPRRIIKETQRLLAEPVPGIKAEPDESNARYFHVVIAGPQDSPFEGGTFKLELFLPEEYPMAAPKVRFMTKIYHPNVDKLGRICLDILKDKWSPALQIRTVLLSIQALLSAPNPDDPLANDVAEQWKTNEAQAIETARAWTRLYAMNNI", "assay": "NMR detection of UBE2N ligand binding – biophysical, purified protein (AID 1552)", "conditions": "NMR binding to purified UBE2N"}
{"compound": "Cc1csc(NC(=O)c2cccs2)n1", "Kd": "> 4 mM (inactive)"}
{"compound": "Cc1nc2nc(-c3ccco3)nn2c(C)c1Cl", "Kd": "> 4 mM (inactive)"}
{"compound": "O=C(O)CCS(=O)(=O)c1ccccc1", "Kd": "> 4 mM (inactive)"}
{"compound": "COCc1cc(=O)oc2cc(N)ccc12", "Kd": "> 4 mM (inactive)"}
{"compound": "Cc1cc(C(=O)N2CCN(c3ncccn3)CC2)cs1", "Kd": "> 4 mM (inactive)"}
{"compound": "O=S(=O)(NCc1ccco1)c1cccc2cccnc12", "Kd": "> 4 mM (inactive)"}
{"compound": "Nc1cccc2c(=O)[nH][nH]c(=O)c12", "Kd": "> 4 mM (inactive)"}
{"compound": "OCc1nccn1Cc1ccccc1", "Kd": "> 4 mM (inactive)"}
{"compound": "CS(=O)(=O)N1CCC(C(=O)NC2CCCC2)CC1", "Kd": "> 4 mM (inactive)"}
{"compound": "COc1ccccc1NC(=O)c1cc[n+]([O-])cc1", "Kd": "> 4 mM (inactive)"}
{"compound": "Cc1noc(C)c1C(=O)Nc1ccccn1", "Kd": "> 4 mM (inactive)"}
{"compound": "CCC(=O)NC(=S)Nc1ccc(N2CCOCC2)cc1", "Kd": "> 4 mM (inactive)"}
{"compound": "CC(=O)Nc1ccc2c(c1)CCC2=O", "Kd": "> 4 mM (inactive)"}
{"compound": "CC(=O)N1CN(C(C)=O)CN(C(C)=O)C1", "Kd": "> 4 mM (inactive)"}
{"compound": "OCc1ccc(-c2ccccn2)s1", "Kd": "> 4 mM (inactive)"}
{"compound": "O=C1C2CC=C(Cl)CC2C(=O)N1c1ccccc1O", "note": "(stereo not given)", "Kd": "> 4 mM (inactive)"}
{"compound": "NC(=O)CCS(=O)(=O)CCN1CCOCC1", "Kd": "> 4 mM (inactive)"}
{"compound": "Cn1ncc(SCc2ccco2)c(Cl)c1=O", "Kd": "> 4 mM (inactive)"}
{"compound": "COc1ccc(-c2cc(=O)c3ccccc3o2)cc1", "Kd": "> 4 mM (inactive)"}
{"compound": "Nc1ccc(-c2csnn2)cc1", "Kd": "> 4 mM (inactive)"}
{"compound": "Cc1nnc2sc(-c3csc4c3CCCC4)nn12", "Kd": "> 4 mM (inactive)"}
{"compound": "N#Cc1cnn2c(C(F)(F)F)cc(C(F)(F)F)nc12", "Kd": "> 4 mM (inactive)"}
{"compound": "Cc1nc2c(n1O)CCc1c-2no[n+]1[O-]", "Kd": "> 4 mM (inactive)"}
{"compound": "CNC(=S)NCCN1CCOCC1", "Kd": "> 4 mM (inactive)"}
{"compound": "CCSc1nnc(-c2ccccc2N)c(=O)[nH]1", "Kd": "> 4 mM (inactive)"}
{"compound": "CC1(C)C=CC(=O)[C@@]2(C)C1CC(=O)[C@]1(C)C2CC[C@@]2(C)[C@H](c3ccoc3)OC(=O)C3OC321", "note": "(stereo not given in full)", "Kd": "> 4 mM (inactive)"}
{"compound": "CCOc1cccc(C(=O)c2ccc(O)c(O)c2O)c1", "Kd": "> 4 mM (inactive)"}
{"compound": "COc1cc(OC)c2c(OC)c(-c3ccc4c(c3)OCO4)c(=O)oc2c1", "Kd": "> 4 mM (inactive)"}
{"compound": "COc1ccccc1/C=C/CN1CCOCC1", "Kd": "> 4 mM (inactive)"}
{"compound": "CNC(=S)Nc1ccc2c(c1)OCO2", "Kd": "> 4 mM (inactive)"}
{"compound": "O=C1C2CC=CCC2C(=O)N1c1cccc(O)c1", "note": "(stereo not given)", "Kd": "> 4 mM (inactive)"}
{"compound": "CC1(C)C2CC(=O)[C@]3(C)C(CC[C@@]4(C)[C@H](c5ccoc5)OC(=O)[C@H]5O[C@]543)[C@@]2(C)C(=O)C[C@H]1O", "note": "(stereo not given in full)", "Kd": "> 4 mM (inactive)"}
{"compound": "Nc1cc(=O)[nH]c(=S)n1CCc1ccccc1", "Kd": "> 4 mM (inactive)"}
{"compound": "Nc1cccc(S(=O)(=O)N2CCCC2)c1", "Kd": "> 4 mM (inactive)"}
{"compound": "Nc1ccc2[nH]ncc2c1", "Kd": "> 4 mM (inactive)"}
{"compound": "CC(=O)Nc1c(C)n(C)n(-c2ccccc2)c1=O", "Kd": "> 4 mM (inactive)"}
{"compound": "Nc1ncnc(NCCOCCO)c1[N+](=O)[O-]", "Kd": "> 4 mM (inactive)"}
{"compound": "N#Cc1nc(-c2ccccc2Cl)oc1N1CCOCC1", "Kd": "> 4 mM (inactive)"}
{"compound": "CSc1nc(-c2ccccc2)ccc1C(N)=O", "Kd": "> 4 mM (inactive)"}
{"compound": "Cn1c(SCC(N)=O)nnc1-c1cccnc1", "Kd": "> 4 mM (inactive)"}
{"compound": "O=CN1CCN(C(=O)c2ccccc2Cl)CC1", "Kd": "> 4 mM (inactive)"}
{"compound": "NC(=O)CSc1nnc2ccc(-c3ccccn3)nn12", "Kd": "> 4 mM (inactive)"}
{"compound": "Cc1ccccc1NC(=O)CSc1ccnc(=O)[nH]1", "Kd": "> 4 mM (inactive)"}
{"compound": "CC1=CC(=O)NC2C=CC=CC12", "note": "(stereo not given)", "Kd": "> 4 mM (inactive)"}
{"compound": "COC1CC(O[C@H]2CC[C@]3(C=O)C4CC[C@]5(C)C(C6=CC(=O)OC6)CC[C@]5(O)C4CC[C@]3(O)C2)OC(C)C1O", "note": "(stereo not given in full)", "Kd": "> 4 mM (inactive)"}
{"compound": "O=C(Nn1cnnc1)c1cccc(C(F)(F)F)c1", "Kd": "> 4 mM (inactive)"}
{"compound": "Cc1cc(C)n(-c2nc(C)nc(N)n2)n1", "Kd": "> 4 mM (inactive)"}
{"compound": "O=C1CNC(=O)N1Cc1ccc(Br)cc1", "Kd": "> 4 mM (inactive)"}
{"compound": "COc1cccc(N2CCN(C(=O)c3cccnc3)CC2)c1", "Kd": "> 4 mM (inactive)"}
{"compound": "Cn1cnc2c(Cl)ncnc21", "Kd": "> 4 mM (inactive)"}
{"compound": "O=C(O)c1ccnn1-c1ccccc1", "Kd": "> 4 mM (inactive)"}
{"compound": "CC(=O)c1ccc(NS(=O)(=O)c2cccc(C)c2)cc1", "Kd": "> 4 mM (inactive)"}
{"compound": "O=C1C=C(O)c2ccccc2C1=O", "Kd": "> 4 mM (inactive)"}
{"compound": "Nc1c(F)c(F)nc(F)c1F", "Kd": "> 4 mM (inactive)"}
{"compound": "O=C(O)CCC(=O)NCc1cccnc1", "Kd": "> 4 mM (inactive)"}
{"compound": "Nc1ccc(CCC(=O)O)cc1", "Kd": "> 4 mM (inactive)"}
{"compound": "C[C@]12CCC3C(CC[C@H]4C[C@@H](O)CC[C@]34C)C1CCC2=O", "note": "(stereo not given in full)", "Kd": "> 4 mM (inactive)"}
{"compound": "CS(=O)(=O)N1CCN(C(=O)c2ccccc2)C1", "Kd": "> 4 mM (inactive)"}
{"compound": "S=c1nc(Cc2ccccc2)[nH][nH]1", "Kd": "> 4 mM (inactive)"}
{"compound": "COc1cc(N)ncn1", "Kd": "> 4 mM (inactive)"}
{"compound": "Cc1cc(C)c2nncn2n1", "Kd": "> 4 mM (inactive)"}
{"compound": "COc1cc(OC)c(OC)cc1C=O", "Kd": "> 4 mM (inactive)"}
{"compound": "COc1ccc(/C=C2/NC(=S)NC2=O)cc1", "Kd": "> 4 mM (inactive)"}
{"compound": "Cn1c2ccccc2n2c(=S)[nH]nc12", "Kd": "> 4 mM (inactive)"}
{"compound": "O=C(Cc1ccccc1)Nc1c[nH]c(=O)[nH]c1=O", "Kd": "> 4 mM (inactive)"}
{"compound": "CC(=O)c1cccc(NC(=O)NN2CCOCC2)c1", "Kd": "> 4 mM (inactive)"}
{"compound": "Fc1ccc2onc(C3CCNCC3)c2c1", "Kd": "> 4 mM (inactive)"}
{"compound": "O=C(CN1CCOCC1)Nc1nccs1", "Kd": "> 4 mM (inactive)"}
{"compound": "C=CC(C1=CC(=O)C=CC1=O)c1ccccc1", "note": "(stereo not given)", "Kd": "> 4 mM (inactive)"}
{"compound": "Cn1cnc2ccc([N+](=O)[O-])cc2c1=O", "Kd": "> 4 mM (inactive)"}
{"compound": "N/N=C1\\CCCc2c1no[n+]2[O-]", "Kd": "> 4 mM (inactive)"}
{"compound": "CCOC(=O)c1csc(C2COc3ccccc3O2)n1", "note": "(stereo not given)", "Kd": "> 4 mM (inactive)"}
{"compound": "O=C(c1ccco1)N1CCNCC1", "Kd": "> 4 mM (inactive)"}
{"compound": "O=c1c2ccccc2oc2ccccc12", "Kd": "> 4 mM (inactive)"}
{"compound": "O=C(O)c1coc2c1C(=O)CCC2", "Kd": "> 4 mM (inactive)"}
{"compound": "CC(=O)c1nnc2cc(C)nn2c1C", "Kd": "> 4 mM (inactive)"}
{"compound": "O=S1(=O)CCC2CC=CCC21", "note": "(stereo not given)", "Kd": "> 4 mM (inactive)"}
{"compound": "CNC(=O)c1cc(S(=O)(=O)N(C)C)ccc1Cl", "Kd": "> 4 mM (inactive)"}
{"compound": "O=c1c2ccccc2oc2ccc(O)cc12", "Kd": "> 4 mM (inactive)"}
{"compound": "CC(=O)Nc1ccccc1-c1ccccc1NC(C)=O", "Kd": "> 4 mM (inactive)"}
{"compound": "NC(=O)c1cccc(N2C(=O)C=CC2=O)c1", "Kd": "> 4 mM (inactive)"}
{"compound": "CCCCCCCCCCCCCCC(C(=O)OC)C(O)(CC(=O)OC)C(=O)OC", "note": "(stereo not given)", "Kd": "> 4 mM (inactive)"}
{"compound": "O=S(=O)(Nc1cccnc1Cl)c1ccccc1", "Kd": "> 4 mM (inactive)"}
{"compound": "Cc1cc(NC(=O)NCCCSc2nncn2C)no1", "Kd": "> 4 mM (inactive)"}
{"compound": "O=C(Cc1c(F)cccc1Cl)Nc1cccnc1", "Kd": "> 4 mM (inactive)"}
{"compound": "c1ccc(-c2noc(-c3ccco3)n2)nc1", "Kd": "> 4 mM (inactive)"}
{"compound": "O=C(O)C1Cc2c([nH]c3ccccc23)CN1", "note": "(stereo not given)", "Kd": "> 4 mM (inactive)"}
{"compound": "NC(=O)c1ccccc1N=Cc1ccco1", "Kd": "> 4 mM (inactive)"}
{"compound": "Nc1ncnc2nc(SCCN3CCCCC3)[nH]c12", "Kd": "> 4 mM (inactive)"}
{"compound": "OCc1ccc(Oc2ccccc2)nc1", "Kd": "> 4 mM (inactive)"}
